From patent publication US20260151403A1, “NEK7 DEGRADERS AND METHODS OF USE THEREOF” (Captor Therapeutics S.A., priority 2022, published 2026) come the findings set out here.

Holding throughout (assay type): cell-based
One assay concerns the target NEK7 protein (Homo sapiens, UniProt Q8TDX7+Q96SW2). Put plainly: NEK7 protein degradation determined by Western blot in human PBMC-derived macrophages. As to conditions: 24 h; for remaining NEK7 protein amount at 10 µM: densitometric values normalized to loading control, read-out: Amount of NEK7 protein (% of DMSO control); for NEK7 protein degradation (Western blotting, in words): FIG. 1. Here is the method: (§1) Macrophages were differentiated from human PBMCs isolated from buffy coats from healthy donors.
(§2) Buffy coats were diluted 1:1 (v/v) with DPBS (Sigma-Aldrich) in falcon tubes. After reconstitution, suspension was carefully layered on Histopaque-1077 solution (Sigma-Aldrich) and centrifuged (760×g, RT, 20 min; Brakes Off). PBMCs were collected and washed with DPBS (3× at 350×g, RT, 8 min and 1× at 200×g, RT, 10 min; Brakes On). Subsequently, cells were resuspended in appropriate volume of RPMI 1640 medium (Gibco) supplemented with 10% of heat-inactivated FBS (Gibco) and 1% of Penicillin-Streptomycin Solution 100x (Biowest). Cell viability was measured using trypan blue solution (Sigma-Aldrich).
(§3) 10×10^6 of PBMCs per well were seeded on 6-well plates in complete medium supplemented with 10 ng/ml of M-CSF growth factor (R&D Systems). Differentiation was conducted for a week with medium replacement every 2-3 days. Differentiation of PBMCs into mature macrophages was confirmed by microscopic evaluation and FACS surface staining for the following markers: CD11b, CD14, CD16 (BD Pharmingen). Differentiated macrophages were subjected on NLRP3 inflammasome activation assay.
(§4) Human PBMC-derived macrophages were pre-treated for 24 h with exemplary compounds at the specific concentrations. Dilutions of tested compound were prepared in DMSO. Afterwards cells were primed with 1 μg/ml of LPS (Invivogen) for 3 h and NLRP3 inflammasomes were activated with 5 μM of nigericin solution (Invivogen) for 1 h. Supernatants were centrifuged and stored for ELISA assays and cell lysates were prepared for Western blotting analysis.
Cell lysates from Human PBMC-derived macrophages were prepared by direct lysis in 40 μl RIPA lysis buffer (50 mM Tris·HCl pH 7.4, 150 mM NaCl, 1% NP-40, 0.25% sodium deoxycholate, 0.1% SDS and 1 mM EDTA) supplemented with protease and phosphatase inhibitors (cOmplete EDTA-free Protease Inhibitor Cocktail, Roche; Halt™ Phosphatase Inhibitor Cocktail, Thermo Scientific). Subsequently, lysates were snap frozen in liquid nitrogen and stored in −20° C. Following thawing, lysates were centrifuged at 4° C., 19 000×g for 15 min for supernatants collection. The protein concentration in each sample was determined by BCA method (Pierce BCA Protein Assay Kit, Thermo Fischer Scientific). The absorbance was measured using CLARIOstar Multimode Plate Reader at 562 nm. SDS-PAGE samples were prepared by mixing the lysates with 5×SB and RIPA buffer. Denaturation of the samples was performed by incubation at 95° C. for 5 minutes.
The protein samples were resolved on 4-20% TGX Stain-Free™ protein gels (Bio-Rad) and transferred onto nitrocellulose membranes (Bio-Rad) using Trans-Blot® Turbo system (Bio-Rad). Membranes were blocked in 5% non-dried milk (NFM) in TBS-T (10 mM Tris, 150 mM NaCl, 0.1% Tween-20) for 1 h at room temperature (RT). Membranes were incubated with primary antibodies for NEK7 (O/N, 4° C.) and loading control—β-Actin (1 h, RT) diluted in 5% NFM in TBS-T, followed by incubation with the appropriate horseradish peroxidase (HRP) conjugated secondary antibody diluted in 5% NFM in TBS-T for 1 h in RT. Between each antibody incubation, the membranes were washed in TBS-T. Membranes were developed using SuperSignal West Pico PLUS chemiluminescent substrate (ThermoScientific). Membrane images were captured using Chemi Doc Imager. The analysis was performed in Image Lab software. Densitometric values for NEK7 protein were normalized to the loading control and calculated as a relative to the cells treated with DMSO control.
NEK7-HiBiT degradation results were further confirmed for selected compounds in human PBMC-derived macrophages.
For orientation: In western blotting, separated proteins are transferred to a membrane and probed.

Assay [1] concerns IL-1β release (NLRP3 inflammasome activation). Put plainly: NLRP3 inflammasome activation assay, IL-1β release (ELISA) in human PBMC-derived macrophages. As to conditions: 10 μM, 24 h pre-treatment, then LPS 3 h and nigericin 1 h. As to the method:
as §1, §2, §3, §4
(§5) IL-1β and IL-18 level was quantified using ELISA assays (R&D Systems) according to the manufacturer's protocol. 96-well plates were coated overnight with appropriate capture antibodies. Plates were blocked and incubated at RT for a minimum of 1 h. Samples or standards were added and incubated for 2 h in RT. Next, biotinylated anti-human IL-1β or IL-18 detection antibodies were added for 2 h in RT. Strepatividin-HRP solution was added for 20 min of incubation. Subsequently, substrate solution was added for 20 min. Between each step washing procedure was performed. The reaction was stopped, and optical density was determined using CLARIOstar Multimode Plate reader set to 450 nm with wavelength correction set to 570 nm. The analysis was performed with GraphPad Prism Software and Excel spreadsheet.
(§6) To evaluate compound effect on inflammasome activation (measured as IL-1β and IL-18 release), human PBMC-derived macrophages were treated with individual compounds for 24 h prior to inflammasome activation. As shown in the Table 4 and in FIGS. 2A and 2B, after 24 h of pre-treatment with exemplary compounds, a dose-dependent decrease of cytokines level was noted.
A general note: An ELISA detects its analyte on a solid surface through an enzyme-linked reagent.

The subject of assay [2] is IL-18 release (NLRP3 inflammasome activation). Put plainly: NLRP3 inflammasome activation assay, IL-18 release (ELISA) in human PBMC-derived macrophages. The note with it: 10 μM, 24 h pre-treatment, then LPS 3 h and nigericin 1 h. As to the method:
as §1, §2, §3, §4, §5, §6

NEK7 protein, sequence (Q8TDX7 whole entry): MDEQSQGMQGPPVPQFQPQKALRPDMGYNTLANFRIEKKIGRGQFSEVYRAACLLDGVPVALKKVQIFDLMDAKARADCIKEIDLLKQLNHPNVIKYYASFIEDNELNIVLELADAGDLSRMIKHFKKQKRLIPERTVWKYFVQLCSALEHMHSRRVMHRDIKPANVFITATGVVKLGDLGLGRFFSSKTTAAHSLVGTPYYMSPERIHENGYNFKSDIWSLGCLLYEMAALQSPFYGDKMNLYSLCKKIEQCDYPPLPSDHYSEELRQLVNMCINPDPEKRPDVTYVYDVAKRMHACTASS
NEK7 protein, sequence (Q96SW2 whole entry): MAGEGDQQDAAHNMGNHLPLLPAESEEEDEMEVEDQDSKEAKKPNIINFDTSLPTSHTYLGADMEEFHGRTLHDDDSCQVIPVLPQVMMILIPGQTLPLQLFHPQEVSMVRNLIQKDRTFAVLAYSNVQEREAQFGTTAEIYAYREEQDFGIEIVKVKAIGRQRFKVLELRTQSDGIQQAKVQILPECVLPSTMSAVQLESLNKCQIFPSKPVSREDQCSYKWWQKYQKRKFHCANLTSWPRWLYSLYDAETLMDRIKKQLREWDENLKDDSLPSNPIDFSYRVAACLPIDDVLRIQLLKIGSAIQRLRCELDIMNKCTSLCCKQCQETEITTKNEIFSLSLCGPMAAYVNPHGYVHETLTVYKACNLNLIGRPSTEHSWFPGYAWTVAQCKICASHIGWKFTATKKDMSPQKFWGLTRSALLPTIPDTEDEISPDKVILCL
NEK7 protein, sequence (Q16531 whole entry partner): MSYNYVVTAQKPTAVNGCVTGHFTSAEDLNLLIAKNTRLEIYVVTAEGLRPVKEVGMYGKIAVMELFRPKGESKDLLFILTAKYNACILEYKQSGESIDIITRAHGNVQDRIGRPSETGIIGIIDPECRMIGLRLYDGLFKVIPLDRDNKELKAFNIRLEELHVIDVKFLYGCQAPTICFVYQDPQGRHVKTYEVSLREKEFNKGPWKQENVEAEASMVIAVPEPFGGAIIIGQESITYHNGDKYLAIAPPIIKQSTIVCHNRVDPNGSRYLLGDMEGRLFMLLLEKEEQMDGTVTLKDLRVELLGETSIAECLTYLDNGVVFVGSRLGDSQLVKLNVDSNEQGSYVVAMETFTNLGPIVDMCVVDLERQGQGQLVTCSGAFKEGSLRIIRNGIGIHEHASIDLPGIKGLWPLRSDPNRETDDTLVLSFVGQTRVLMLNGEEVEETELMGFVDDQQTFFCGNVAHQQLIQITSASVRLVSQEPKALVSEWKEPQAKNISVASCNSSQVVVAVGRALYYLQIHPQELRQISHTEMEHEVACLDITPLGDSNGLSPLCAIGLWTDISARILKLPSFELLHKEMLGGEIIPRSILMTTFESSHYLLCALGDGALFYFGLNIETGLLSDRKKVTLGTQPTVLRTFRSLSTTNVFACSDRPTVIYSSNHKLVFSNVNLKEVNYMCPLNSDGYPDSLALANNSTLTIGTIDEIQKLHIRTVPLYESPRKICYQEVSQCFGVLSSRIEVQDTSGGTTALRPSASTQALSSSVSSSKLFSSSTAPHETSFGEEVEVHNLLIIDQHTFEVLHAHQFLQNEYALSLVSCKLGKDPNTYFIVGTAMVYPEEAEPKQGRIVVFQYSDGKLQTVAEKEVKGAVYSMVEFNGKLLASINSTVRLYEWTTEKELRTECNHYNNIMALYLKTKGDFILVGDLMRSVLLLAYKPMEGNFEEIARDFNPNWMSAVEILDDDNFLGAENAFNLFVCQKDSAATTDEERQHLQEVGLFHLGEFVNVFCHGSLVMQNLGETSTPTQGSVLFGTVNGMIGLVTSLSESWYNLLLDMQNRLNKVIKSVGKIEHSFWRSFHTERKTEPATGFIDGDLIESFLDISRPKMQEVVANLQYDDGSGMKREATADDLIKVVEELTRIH

In the case of `CC1c2cc(C3CCCCO3)ccc2C(=O)N1C1CCC(=O)NC1=O` (centres unmarked) [Compound 64, 3-(3-methyl-1-oxo-5-(tetrahydro-2H-pyran-2-yl)isoindolin-2-yl)piperidine-2,6-dione], on NEK7 protein, the remaining NEK7 protein amount at 10 µM was at most 10% and the “NEK7 protein degradation (Western blotting, in words)” value was “NEK7 protein degradation”. Moreover, the “Level of released IL-1β (% of DMSO control)” value in assay [1] is given as “A (Levels of released cytokines ≤ 25%)”. The “Level of released IL-18 (% of DMSO control)” value in assay [2] was “A (Levels of released cytokines ≤ 25%)”.
Consider `O=C1CCC(N2Cc3cc(-c4ccc(-c5ccccc5)cn4)ccc3C2=O)C(=O)N1` (centres unmarked) [4(2), 3-(1-oxo-5-(5-phenylpyridin-2-yl)isoindolin-2-yl)piperidine-2,6-dione], for which, at NEK7 protein, the remaining NEK7 protein amount at 10 µM was in the range of 40 to 75%. In addition, the “Level of released IL-1β (% of DMSO control)” value in assay [1] is reported as “D (Levels of released cytokines ≥ 75%)”. Besides, in assay [2], the “Level of released IL-18 (% of DMSO control)” value is “B (Levels of released cytokines > 25% and ≤50%)”.
Turning to `Cc1c(C2CCCCN2)ccc2c1CN(C1CCC(=O)NC1=O)C2=O` (centres unmarked) [Compound 19, 3-(4-methyl-1-oxo-5-(piperidin-2-yl)isoindolin-2-yl)piperidine-2,6-dione], the remaining NEK7 protein amount at 10 µM on NEK7 protein lay in the range of 40 to 75%. Further, the “Level of released IL-1β (% of DMSO control)” value in assay [1] was “C (Levels of released cytokines > 50% and <75%)”. Besides, in assay [2], the “Level of released IL-18 (% of DMSO control)” value is “C (Levels of released cytokines > 50% and <75%)”.
As for `CC1c2cc(C3CCCCN3)ccc2C(=O)N1C1CCC(=O)NC1=O` (centres unmarked) [Compound 25, 3-(3-methyl-1-oxo-5-(piperidin-2-yl)isoindolin-2-yl)piperidine-2,6-dione], on NEK7 protein, the remaining NEK7 protein amount at 10 µM is at most 10% and the “NEK7 protein degradation (Western blotting, in words)” value is given as “NEK7 protein degradation”. Further, the “Level of released IL-1β (% of DMSO control)” value in assay [1] is reported as “A (Levels of released cytokines ≤ 25%)”. The “Level of released IL-18 (% of DMSO control)” value in assay [2] is listed as “A (Levels of released cytokines ≤ 25%)”.
On to `O=C1CCC(N2Cc3cc(-c4ccccn4)ccc3C2=O)C(=O)N1` (centres unmarked) [2(2), 3-(1-oxo-5-(pyridin-2-yl)isoindolin-2-yl)piperidine-2,6-dione], for which the remaining NEK7 protein amount at 10 µM at NEK7 protein was in the range of 40 to 75%.
On to `O=C1CCC(N2Cc3cc(C4CCCCN4)c(F)cc3C2=O)C(=O)N1` (centres unmarked) [Compound 23, 3-(6-fluoro-1-oxo-5-(piperidin-2-yl)isoindolin-2-yl)piperidine-2,6-dione], for which the remaining NEK7 protein amount at 10 µM on NEK7 protein is 40 to 75%.
For the compound `O=C1CCC(N2Cc3cc(C4CCCCN4)ccc3C2=O)C(=O)N1` (centres unmarked) [Compound 2, 3-(1-oxo-5-(piperidin-2-yl)isoindolin-2-yl)piperidine-2,6-dione], on NEK7 protein, the remaining NEK7 protein amount at 10 µM lay within 10 to 40% and the “NEK7 protein degradation (Western blotting, in words)” value is recorded as “NEK7 protein degradation”. Besides, the “Level of released IL-1β (% of DMSO control)” value in assay [1] is “B (Levels of released cytokines > 25% and ≤50%)”. Moreover, the “Level of released IL-18 (% of DMSO control)” value in assay [2] was “A (Levels of released cytokines ≤ 25%)”.
